Values of other authors as cited in patent publication US12253499B2, “Thin-layer chromatography system and method for assessing analyte concentrations in samples” (UCL BUSINESS LTD, priority 2017, dated 2025).
Read-outs that look alike come from different tables or passages of the source.

Tests used:
[1] = for Therapeutic window / Therapeutic window (μg/mL): Leading candidate drugs for TDM
[2] = inter-individual variability
topoisomerase I = biological target: T1, topoisomerase I (Homo sapiens, UniProt P11387); details: relative to Irinotecan
T1 sequence (P11387 1-765): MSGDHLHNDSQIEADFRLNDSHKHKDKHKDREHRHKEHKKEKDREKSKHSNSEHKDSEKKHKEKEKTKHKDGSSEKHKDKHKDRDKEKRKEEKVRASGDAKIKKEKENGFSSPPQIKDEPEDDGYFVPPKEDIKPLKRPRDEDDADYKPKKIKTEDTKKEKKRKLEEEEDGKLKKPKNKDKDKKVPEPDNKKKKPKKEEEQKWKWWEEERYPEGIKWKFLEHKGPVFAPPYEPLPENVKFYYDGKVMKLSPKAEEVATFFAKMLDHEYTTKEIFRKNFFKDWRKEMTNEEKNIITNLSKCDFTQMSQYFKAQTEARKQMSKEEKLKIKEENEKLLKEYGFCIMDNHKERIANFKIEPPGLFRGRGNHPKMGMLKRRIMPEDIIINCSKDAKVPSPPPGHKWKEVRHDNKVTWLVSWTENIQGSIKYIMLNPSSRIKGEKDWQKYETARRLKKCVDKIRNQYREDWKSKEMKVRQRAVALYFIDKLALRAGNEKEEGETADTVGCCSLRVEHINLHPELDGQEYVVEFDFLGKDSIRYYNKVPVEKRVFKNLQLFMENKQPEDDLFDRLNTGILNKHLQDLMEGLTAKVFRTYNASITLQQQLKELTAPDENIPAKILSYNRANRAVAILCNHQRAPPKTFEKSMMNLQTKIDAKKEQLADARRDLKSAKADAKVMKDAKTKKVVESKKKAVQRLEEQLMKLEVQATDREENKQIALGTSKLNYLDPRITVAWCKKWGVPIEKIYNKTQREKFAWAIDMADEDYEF

[3] = relative to Irinotecan
[4] = Table D, In-depth list of candidate drugs
[5] = Table D, In-depth list of candidate drugs, given as daily dose

Compound	Window [1, 4]	also measured
O=c1[nH]cc(F)c(=O)[nH]1 [5-fluoruoracil, 5-fluorouracil]	2000 to 3000 µg/mL	Therapeutic window ([1]; Table D): 2000 to 3000 µg/mL; Plasma drug concentrations vary [2]: ≤ 100 fold
NCC[C@H](O)C(=O)N[C@@H]1C[C@H](N)[C@@H](O[C@H]2O[C@H](CN)[C@@H](O)[C@H](O)[C@H]2O)[C@H](O)[C@H]1O[C@H]1O[C@H](CO)[C@@H](O)[C@H](N)[C@H]1O [Amikacin]	5 to 15 µg/mL	–
CCCCc1oc2ccccc2c1C(=O)c1cc(I)c(OCCN(CC)CC)c(I)c1 [Amiodarone]	0.5 to 2 µg/mL	Therapeutic window (μg/mL) ([1]; Table D): 0.5-2^ μg/mL
CS(=O)(=O)OCCCCOS(C)(=O)=O [Busulfan]	0.9 to 1 µg/mL	–
NC(=O)N1c2ccccc2C=Cc2ccccc21 [Carbamazepine]	5 to 10 µg/mL	–
O=C(O)c1cn(C2CC2)c2cc(N3CCNCC3)c(F)cc2c1=O [Ciprofloxacin]	0.1 to 8.3 µg/mL	Therapeutic window ([1]; Table D): 0.1 to 8.3 µg/mL
CN1C(=O)CC(=O)N(c2ccccc2)c2cc(Cl)ccc21 [Clobazam]	Varies, 0.2-5 ug/mL	–
O=C1CN=C(c2ccccc2Cl)c2cc([N+](=O)[O-])ccc2N1 [Clonazepam]	20 to 80 µg/mL	–
CC(C)N(CCC(C(N)=O)(c1ccccc1)c1ccccn1)C(C)C (stereo not drawn) [Disopyramide]	2 to 4 µg/mL	–
COc1cccc2c1C(=O)c1c(O)c3c(c(O)c1C2=O)C[C@@](O)(C(=O)CO)C[C@@H]3O[C@H]1C[C@H](N)[C@H](O)[C@H](C)O1 [Doxorubicin]	–	Therapeutic window ([1]; Table D): 10 to 58 µg/mL
CCC1(C)CC(=O)NC1=O (stereo not drawn) [Ethosuximide]	40 to 100 µg/mL	–
COc1cc([C@@H]2c3cc4c(cc3[C@@H](O[C@@H]3O[C@@H]5CO[C@@H](C)O[C@H]5[C@H](O)[C@H]3O)[C@H]3COC(=O)[C@H]23)OCO4)cc(OC)c1O [Etopisode]	–	Therapeutic window ([1]; Table D): 1 to 10 µg/mL
NC(=O)OCC(COC(N)=O)c1ccccc1 [Felbamate]	50 to 110 µg/mL	–
NCC1(CC(=O)O)CCCCC1 [Gabapentin]	2 to 20 µg/mL	–
CCC(C)n1ncn(-c2ccc(N3CCN(c4ccc(OCC5COC(Cn6cncn6)(c6ccc(Cl)cc6Cl)O5)cc4)CC3)cc2)c1=O (stereo not drawn) [Itraconazole]	0.5 to 17 µg/mL	Therapeutic window ([1]; Table D): 0.5 to 17 µg/mL
Nc1nnc(-c2cccc(Cl)c2Cl)c(N)n1 [Lamotrigine]	2.5 to 15 µg/mL	–
CC[C@@H](C(N)=O)N1CCCC1=O [Levetiracetam]	10 to 40 µg/mL	Window ([1]; Table D, In-depth list of candidate drugs, listed as Leveltiracetam): 20 to 40 µg/mL
CCN(CC)CC(=O)Nc1c(C)cccc1C [Lidocaine]	1.5 to 5 µg/mL	–
CC(=O)NC[C@H]1CN(c2ccc(N3CCOCC3)c(F)c2)C(=O)O1 [Linezolid]	1.75 to 7.53 µg/mL	Therapeutic window ([1]; Table D): 1.8 to 7.5 µg/mL
[Li] [Lithium]	0.6-1.2 mEq/L	–
Cc1cccc(C)c1OCC(C)N (stereo not drawn) [Mexiletine]	0.5 to 2.5 µg/mL	Therapeutic window ([1]; Table D): 0.5 to 2.5 µg/mL
COc1c(C)c2c(c(O)c1C/C=C(\C)CCC(=O)O)C(=O)OC2 [Mycophenolic Acid]	1 to 4 µg/mL	Therapeutic window ([1]; Table D): 1 to 4 µg/mL
CCN(CC)CCNC(=O)c1ccc(NC(C)=O)cc1 [NAPA]	4 to 8 µg/mL	Therapeutic window ([1]; Table D): 4 to 8 µg/mL
O=C1CN=C(c2ccccc2)c2cc([N+](=O)[O-])ccc2N1 [Nitrazepam]	0.03 to 0.1 µg/mL	–
C1CCC(C(CC2CCCCN2)C2CCCCC2)CC1 (stereo not drawn) [Perhexeline]	0.3 to 4 µg/mL	–

Compound	Window [1, 4]	also measured
O=C1NC(=O)C(c2ccccc2)(c2ccccc2)N1 [Phenytoin]	10 to 20 µg/mL	–
CC[C@@H]([C@H](C)O)n1ncn(-c2ccc(N3CCN(c4ccc(OC[C@@H]5CO[C@@](Cn6cncn6)(c6ccc(F)cc6F)C5)cc4)CC3)cc2)c1=O [Posaconazole]	~0.7 µg/mL	Therapeutic window (μg/mL) ([1]; Table D): Maintain at 0.7 μg/mL
CCC1(c2ccccc2)C(=O)NCNC1=O [Primidone]	5 to 12 µg/mL	–
C=C[C@H]1C[N@@]2CC[C@H]1C[C@@H]2[C@@H](O)c1ccnc2ccc(OC)cc12 [Quinidine]	2 to 5 µg/mL	Therapeutic window ([1]; Table D): 2 to 5 µg/mL
CCc1c2c(nc3ccc(O)cc13)-c1cc3c(c(=O)n1C2)COC(=O)[C@]3(O)CC [SN-38, 7-ethyl-10-hydroxycampto-thecin]	–	more potent at inhibiting topoisomerase I than the parent Irinotecan (topoisomerase I): up to 1,000; concentration of SN-38 lower than that of Irinotecan [3]: over 30 times
O=C(O)c1ccccc1O [Salicylate]	15 to 30 µg/mL	Therapeutic window ([1]; Table D): 15 to 30 µg/mL
CO[C@H]1C[C@@H]2CC[C@@H](C)[C@@](O)(O2)C(=O)C(=O)N2CCCC[C@H]2C(=O)O[C@H]([C@H](C)C[C@@H]2CC[C@@H](O)[C@H](OC)C2)CC(=O)[C@H](C)/C=C(\C)[C@@H](O)[C@@H](OC)C(=O)[C@H](C)C[C@H](C)/C=C/C=C/C=C/1C [Sirolimus]	0.005 to 0.01 µg/mL	–
C=CC[C@@H]1/C=C(\C)C[C@H](C)C[C@H](OC)[C@H]2O[C@@](O)(C(=O)C(=O)N3CCCC[C@H]3C(=O)O[C@H](/C(C)=C/[C@@H]3CC[C@@H](O)[C@H](OC)C3)[C@H](C)[C@@H](O)CC1=O)[C@H](C)C[C@@H]2OC [Tacrolimus]	5 to 20 µg/mL	–
Cn1c(=O)c2[nH]cnc2n(C)c1=O [Theophylline]	5 to 15 µg/mL	–
Cc1ccsc1C(=CCCN1CCC[C@@H](C(=O)O)C1)c1sccc1C [Tiagibine]	0.02 to 0.2 µg/mL	–
NC[C@H]1O[C@H](O[C@H]2[C@H](O)[C@@H](O[C@H]3O[C@H](CO)[C@@H](O)[C@H](N)[C@H]3O)[C@H](N)C[C@@H]2N)[C@H](N)C[C@@H]1O [Tobramicin]	2 to 10 µg/mL	–
CC1(C)O[C@@H]2[C@@H](CO[C@@]3(COS(N)(=O)=O)OC(C)(C)O[C@@H]23)O1 [Topiramate]	2 to 10 µg/mL	–
CCCC(CCC)C(=O)O [Valproic acid]	50 to 125 µg/mL	–
CN[C@H](CC(C)C)C(=O)N[C@H]1C(=O)N[C@@H](CC(N)=O)C(=O)N[C@H]2C(=O)N[C@H]3C(=O)N[C@H](C(=O)N[C@H](C(=O)O)c4cc(O)cc(O)c4-c4cc3ccc4O)[C@H](O)c3ccc(c(Cl)c3)Oc3cc2cc(c3O[C@@H]2O[C@H](CO)[C@@H](O)[C@H](O)[C@H]2O[C@H]2C[C@](C)(N)[C@H](O)[C@H](C)O2)Oc2ccc(cc2Cl)[C@H]1O [Vancomycin]	10 to 20 µg/mL	–
C=CC(N)CCC(=O)O (stereo not drawn) [Vigabratin]	0.8 to 36 µg/mL	–
NS(=O)(=O)Cc1noc2ccccc12 [Zonisamide]	10 to 40 µg/mL	–
Cc1nc(Nc2ncc(C(=O)Nc3c(C)cccc3Cl)s2)cc(N2CCN(CCO)CC2)n1 [dasatinib]	~0.05 µg/mL	–
C#Cc1cccc(Nc2ncnc3cc(OCCOC)c(OCCOC)cc23)c1 [erlotinib]	–	Window [1, 5]: 100 to 150 mg/day
CNC(=O)c1cc(Oc2ccc(NC(=O)Nc3ccc(Cl)c(C(F)(F)F)c3)cc2)ccn1 [sorafenib]	–	Window [1, 5]: 800 mg/day
Adalimumab	–	Window ([1]; in vivo): 3.5 to 7 µg/mL
Certolizumab pegol: antibody for autoimmune diseases	–	Window ([1]; in vivo): 3 to 84 µg/mL
Infliximab: antibody for autoimmune diseases	–	Window ([1]; in vivo): ~3.8 µg/mL
Teicoplanin	10 to 60 µg/mL	–
retuximab: cancer drug listed in Table D; not natively fluorescent, requires label	–	Window ([1]; in vivo): Maintain at 375 mg/m^2
